Test results published in patent publication US20030013099A1, “Genes regulated by DNA methylation in colon tumors” (priority 2001, published 2003).

System: HMEC cells
Test: microarray differential expression, HMEC cells treated with Aza
Assay type: cell-based, human
Conditions: vs untreated, log base 2, negative = upregulation
Protocol: HT29 cells were derived from a Grade II adenocarcinoma of the colon obtained from a person. HCT116 cells are a subpopulation of malignant cells isolated from a primary cell culture of a single human colonic carcinoma (Brattain et al. (1981) Cancer Res 41:1751-6). HMEC cells are a primary human epithelial cell line derived from the breast tissue of a normal donor. […] Treated cells were exposed to 500 nM 5-aza-2-deoxycytidine (Aza; Sigma-Aldrich) 24 hours after passage in complete culture medium. Control cultures were treated in parallel with phosphate buffered saline vehicle. After twenty-four hours, culture medium was replaced with drug-free medium. Control and Aza-treated cells were subcultured at equal densities at 1 and 5 days after the initial treatment, and proliferation was measured at the subsequent time point using a Coulter counter (Beckman Coulter, Fullerton Calif.). […]
Cells were harvested and lysed in 1 ml of TRIZOL reagent (5×10^6 cells/ml; Invitrogen). The lysates were vortexed thoroughly and incubated at room temperature for 2-3 minutes and extracted with 0.5 ml chloroform. The extract was mixed, incubated at room temperature for 5 minutes, and centrifuged at 16,000× g for 15 minutes at 4° C. The aqueous layer was collected, and an equal volume of isopropanol was added. Samples were mixed, incubated at room temperature for 10 minutes, and centrifuged at 16,000× g for 20 minutes at 4° C. The supernatant was removed, and the RNA pellet was washed with 1 ml of 70% ethanol, centrifuged at 16,000× g at 4° C., and resuspended in RNAse-free water. The concentration of the RNA was determined by measuring the optical density at 260 nm.
Poly(A) RNA was prepared using an OLIGOTEX mRNA kit (Qiagen) with the following modifications: OLIGOTEX beads were washed in tubes instead of on spin columns, resuspended in elution buffer, and then loaded onto spin columns to recover mRNA. To obtain maximum yield, the mRNA was eluted twice.
Each poly(A) RNA sample was reverse transcribed using MMLV reverse-transcriptase, 0.05 pg/μl oligo-d(T) primer (21mer), 1× first strand buffer, 0.03 units/ul RNAse inhibitor, 500 uM dAT?, 500 uM dGTP, 500 uM dTTP, 40 uM dCTP, and 40 uM either dCTP-Cy3 or dCTP-Cy5 (APB). The reverse transcription reaction was performed in a […] volume containing 200 ng poly(A) RNA using the GEMBRIGHT kit (Incyte Genomics). Specific control poly(A) RNAs (YCFRO6, YCFR45, YCFR67, YCFR85, YCFR43, YCFR22, YCFR23, YCFR25, YCFR44, YCFR26) were synthesized by in vitro transcription from non-coding yeast genomic DNA (W. Lei, unpublished). As quantitative controls, control mRNAs (YCFRO6, YCFR45, YCFR67, and YCFR85) at 0.002 ng, 0.02 ng, 0.2 ng, and 2 ng were diluted into reverse transcription reaction at ratios of 1:100,000, 1:10,000, 1:1000, 1:100 (w/w) to sample mRNA, respectively. To sample differential expression patterns, control mRNAs (YCFR43, YCFR22, YCFR23, YCFR25, YCFR44, YCFR26) were diluted into reverse transcription reaction at ratios of 1:3, 3:1, 1:10, 10:1, 1:25, 25:1 (w/w) to sample mRNA. Reactions were incubated at 37° C. for 2 hours, treated with […] of 0.5M sodium hydroxide, and incubated for 20 minutes at 85° C. to the stop the reaction and degrade the RNA.
cDNAs were purified using two successive CHROMA SPIN 30 gel filtration spin columns (Clontech). Cy3- and Cy5-labeled reaction samples were combined as described below and ethanol precipitated using […] of 100% ethanol. The cDNAs were then dried to completion using a SpeedVAC system (Savant Instruments, Holbrook N.Y.) and resuspended in 14 μl 5× SSC, 0.2% SDS.
Hybridization reactions contained 9 μl of sample mixture containing 0.2 μg each of Cy3 and CyS labeled cDNA synthesis products in 5× SSC, 0.2% SDS hybridization buffer. The mixture was heated to 65° C. for 5 minutes and was aliquoted onto the microarray surface and covered with an 1.8 cm^2 coverslip. […]

[1] = SEQ ID NO:1 hypothetical protein
[2] = SEQ ID NO:3 interferon-inducible protein
[3] = SEQ ID NO:5 chromosome 6p21.3, HLA Class I region
[4] = SEQ ID NO:6 unnamed protein product
[5] = SEQ ID NO:8 putative tumor antigen
[6] = SEQ ID NO:12 cDNA clone ZD16H10
[7] = SEQ ID NO:13, 14 T-cell receptor gamma
[8] = SEQ ID NO:15 pTR5 repetitive sequence
[9] = SEQ ID NO:24 pTR7 repetitive sequence
[10] = SEQ ID NO:25 chromosome 21 segment HS21C049
[11] = SEQ ID NO:26 hypothetical protein

## Nc1ncn([C@H]2C[C@H](O)[C@@H](CO)O2)c(=O)n1 [Aza, 5-aza-2-deoxycytidine]
[1]
  differential expression, Clone ID 2416222, HMEC t/Aza (4d): 0.00
  differential expression, Clone ID 2416222, HMEC t/Aza (9d): 0.00
SEQ ID NO:2 Incyte Unique
  differential expression, Clone ID 4103545, HMEC t/Aza (4d): −0.13
  differential expression, Clone ID 4103545, HMEC t/Aza (9d): −0.43
[2]
  differential expression, Clone ID 322569, HMEC t/Aza (4d): −0.53
  differential expression, Clone ID 322569, HMEC t/Aza (9d): −0.80
[3]
  differential expression, Clone ID 5322134, HMEC t/Aza (4d): −0.32
  differential expression, Clone ID 5322134, HMEC t/Aza (9d): −0.43
[4]
  differential expression, Clone ID 1698458, HMEC t/Aza (4d): 0.26
  differential expression, Clone ID 1698458, HMEC t/Aza (9d): 0.26
SEQ ID NO:7 KIAA1046 protein
  differential expression, Clone ID 1871523, HMEC t/Aza (4d): −0.24
  differential expression, Clone ID 1871523, HMEC t/Aza (9d): −0.07
[5]
  differential expression, Clone ID 6024084, HMEC t/Aza (4d): 0.00
  differential expression, Clone ID 6024084, HMEC t/Aza (9d): 0.00
SEQ ID NO:9 Incyte Unique
  differential expression, Clone ID 3810006, HMEC t/Aza (4d): 0.00
  differential expression, Clone ID 3810006, HMEC t/Aza (9d): 0.00
SEQ ID NO:10 Incyte Unique
  differential expression, Clone ID 4508879, HMEC t/Aza (4d): −0.14
  differential expression, Clone ID 4508879, HMEC t/Aza (9d): −0.20
SEQ ID NO:11 U 6 RNA
  differential expression, Clone ID 4225379, HMEC t/Aza (4d): 0.00
  differential expression, Clone ID 4225379, HMEC t/Aza (9d): 0.00
[6]
  differential expression, Clone ID 3463713, HMEC t/Aza (4d): −0.26
  differential expression, Clone ID 3463713, HMEC t/Aza (9d): −0.48
[7]
  differential expression, Clone ID 2998017, HMEC t/Aza (4d): 0.00
  differential expression, Clone ID 2998017, HMEC t/Aza (9d): 0.00
[8]
  differential expression, Clone ID 4318273, HMEC t/Aza (4d): 0.00
  differential expression, Clone ID 4318273, HMEC t/Aza (9d): −0.26
SEQ ID NO:16 Hep27 protein
  differential expression, Clone ID 1649414, HMEC t/Aza (4d): −0.32
  differential expression, Clone ID 1649414, HMEC t/Aza (9d): −0.32
SEQ ID NO:18 cDNA FLJ20222
  differential expression, Clone ID 1684742, HMEC t/Aza (4d): −0.36
  differential expression, Clone ID 1684742, HMEC t/Aza (9d): −0.20
SEQ ID NO:19 KIAA0412
  differential expression, Clone ID 2825816, HMEC t/Aza (4d): 0.00
  differential expression, Clone ID 2825816, HMEC t/Aza (9d): 0.00
SEQ ID NO:21 Incyte Unique
  differential expression, Clone ID 2440943, HMEC t/Aza (4d): −0.20
  differential expression, Clone ID 2440943, HMEC t/Aza (9d): −0.26
SEQ ID NO:22 PDGF-B
  differential expression, Clone ID 1294339, HMEC t/Aza (4d): −0.68
  differential expression, Clone ID 1294339, HMEC t/Aza (9d): −0.72
SEQ ID NO:23 cDNA FLJ10570
  differential expression, Clone ID 5104741, HMEC t/Aza (4d): 0.00
  differential expression, Clone ID 5104741, HMEC t/Aza (9d): 0.00
[9]
  differential expression, Clone ID 1855389, HMEC t/Aza (4d): −0.14
  differential expression, Clone ID 1855389, HMEC t/Aza (9d): −0.26
[10]
  differential expression, Clone ID 5207613, HMEC t/Aza (4d): −0.26
  differential expression, Clone ID 5207613, HMEC t/Aza (9d): −0.37
[11]
  differential expression, Clone ID 3207902, HMEC t/Aza (4d): −0.14
  differential expression, Clone ID 3207902, HMEC t/Aza (9d): −0.26
SEQ ID NO:27 ZNFpT17
  differential expression, Clone ID 4999769, HMEC t/Aza (4d): 0.00
  differential expression, Clone ID 4999769, HMEC t/Aza (9d): 0.07
SEQ ID NO:28 transketolase
  differential expression, Clone ID 408886, HMEC t/Aza (4d): −0.26
  differential expression, Clone ID 408886, HMEC t/Aza (9d): −0.32
SEQ ID NO:30 GAGE-8
  differential expression, Clone ID 4764233, HMEC t/Aza (4d): 0.00
